In ChEMBL document CHEMBL1133841 (Bioorg Med Chem Lett, 2001) one finds Selectivity and IC50 data, which are given here for 13 compounds.

SMILES strings stand for the structures.

Test system in the first test: not listed separately
Put plainly: Selectivity expressed as the ratio of PP2A/PP1 was determined.
Take `O=C(O)CC[C@H](C(=O)O)N1C(=O)[C@@H]2[C@H](C1=O)[C@H]1CC[C@@H]2O1`: the Selectivity turned out to be 3.

Another test concerns the target Serine/threonine-protein phosphatase PP1 catalytic subunit. Put plainly: Inhibitory concentration against protein phosphatase 1 was determined.
By IC50 is commonly meant the point on the concentration scale where inhibition reaches its midpoint. Read a high IC50 as lower potency. Turning to `CCOC(=O)C1C(C(=O)O)[C@@H]2CC[C@H]1O2` (stereo not given in full), half-maximal inhibition (IC50) required 2.96 µM.

The target in another test is T1, Serine-threonine protein phosphatase 2A regulatory subunit (Gallus gallus) (UniProt Q8AWE3).
T1 sequence (whole entry): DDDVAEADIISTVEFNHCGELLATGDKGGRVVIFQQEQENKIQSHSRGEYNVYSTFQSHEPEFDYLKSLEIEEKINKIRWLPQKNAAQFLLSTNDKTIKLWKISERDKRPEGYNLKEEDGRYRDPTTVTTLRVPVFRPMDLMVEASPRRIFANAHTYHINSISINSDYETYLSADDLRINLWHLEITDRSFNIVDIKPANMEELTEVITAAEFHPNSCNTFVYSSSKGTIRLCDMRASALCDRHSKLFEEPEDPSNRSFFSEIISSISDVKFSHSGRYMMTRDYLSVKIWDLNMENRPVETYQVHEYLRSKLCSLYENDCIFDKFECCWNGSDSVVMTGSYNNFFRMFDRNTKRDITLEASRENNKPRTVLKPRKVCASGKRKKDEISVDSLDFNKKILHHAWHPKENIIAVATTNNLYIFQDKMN
The test can be described thus: Selectivity expressed as the ratio of Protein phosphatase 2A/Protein phosphatase 1 was determined.
`CCOC(=O)C1C(C(=O)O)[C@@H]2CC[C@H]1O2` (stereo not given in full): the Selectivity worked out at 6.5.

The target of another test is T2, Serine-threonine protein phosphatase 2A regulatory subunit (Gallus gallus, UniProt Q8AWE3).
T2 sequence (Q8AWE3 whole entry): T1 sequence (whole entry)
Put plainly: Inhibitory concentration against protein phosphatase 2A (PP2A) was determined.
In the case of `O=C(O)CC[C@H](C(=O)O)N1C(=O)[C@@H]2[C@H](C1=O)[C@H]1CC[C@@H]2O1`, the IC50 was determined as 32 µM.

On to `O=C(O)[C@H](Cc1c[nH]cn1)N1C(=O)[C@@H]2[C@H](C1=O)[C@H]1CC[C@@H]2O1`, for which it took 1.35 µM to reach half-maximal inhibition (IC50).

With `O=C(O)[C@@H](Cc1cnc[nH]1)N1C(=O)[C@@H]2[C@H](C1=O)[C@H]1CC[C@@H]2O1`, the IC50 amounted to 0.81 µM.

As for `O=C(O)[C@@H](Cc1ccccc1)N1C(=O)[C@@H]2[C@H](C1=O)[C@H]1CC[C@@H]2O1`, the IC50 was above 1000 µM.

With `CSC[C@@H](C(=O)O)N1C(=O)[C@@H]2[C@H](C1=O)[C@H]1CC[C@@H]2O1`, the concentration for half-maximal inhibition (IC50) is above 1000 µM.

In turn, `CC(C)C[C@@H](C(=O)O)N1C(=O)[C@@H]2[C@H](C1=O)[C@H]1CC[C@@H]2O1` displayed an IC50 above 1000 µM.

In the case of `O=C(O)[C@H](Cc1c[nH]c2ccccc12)N1C(=O)[C@@H]2[C@H](C1=O)[C@H]1CC[C@@H]2O1`, the IC50 worked out at 105 µM.

Turning to `C[C@@H](C(=O)O)N1C(=O)[C@@H]2[C@H](C1=O)[C@H]1CC[C@@H]2O1`, the IC50 was above 1000 µM.

Regarding `O=C(O)[C@@H](Cc1c[nH]c2ccccc12)N1C(=O)[C@@H]2[C@H](C1=O)[C@H]1CC[C@@H]2O1`, half-maximal inhibition (IC50) was put at 157 µM.

As to `CC(C)C[C@H](C(=O)O)N1C(=O)[C@@H]2[C@H](C1=O)[C@H]1CC[C@@H]2O1`, the IC50 is above 1000 µM.

In the case of `O=C(O)[C@H](Cc1ccccc1)N1C(=O)[C@@H]2[C@H](C1=O)[C@H]1CC[C@@H]2O1`, the IC50 was above 1000 µM.

In the case of `C[C@H](C(=O)O)N1C(=O)[C@@H]2[C@H](C1=O)[C@H]1CC[C@@H]2O1`, the IC50 stood at 150 µM.
